Measured values: patent US12649751B2 (Arcus Biosciences, Inc., priority 2022, dated 2026)

Molecular target: HPK1 (Homo sapiens, UniProt Q92918)
Assay: HPK1 Biochemical Assay (ADP-Glo luminescence; low ATP 10 μM or high ATP 200 μM)
Conditions: 2 nM HPK1, 10 μM ATP; read-out: Biochemical Potency (low ATP)
Procedure: Dose-response assays were performed in Corning® Low Volume 384-well assay plates containing 100 nL of 22 serial 2-fold compound dilutions. Wells containing DMSO alone were used as negative control. A kinase mixture (5 μL) containing 2 nM HPK1 (or 5 nM for high ATP assay) in assay buffer (50 mM Hepes pH 7.4, 10 mM MgCl2, 0.01% Brij-15, 0.01% bovine serum albumin, and 1 mM dithiothreitol) was added to the assay plates and incubated at 25° C. for 1 hour. Wells without HPK1 were used as positive control. A […] of 10 μM ATP (or 200 μM for high ATP) and 0.2 μg/μL […] was then added to the wells, resulting in a 10 μL total reaction volume. Following incubation of the assay plates at 25° C. for 1 hour, 10 μL of ADP-Glo reagent was added to the wells and the plates were incubated at 25° C. for a further 40 minutes (or 1 hour for high ATP assay). Finally, 20 μL of Kinase Detection Reagent was added, and the plates were incubated for another 30 minutes at 25° C. An Envision plate reader was then used to detect the luminescence signals. IC50 values were determined by fitting the data to a standard 4-parameter logistic equation. The results are summarized in the Biochemical Potency columns of Tables 4 and 5 below (Biochemical Potency (high ATP); Biochemical Potency (low ATP)).

Chain of HPK1 (Q92918 whole entry, species assumed): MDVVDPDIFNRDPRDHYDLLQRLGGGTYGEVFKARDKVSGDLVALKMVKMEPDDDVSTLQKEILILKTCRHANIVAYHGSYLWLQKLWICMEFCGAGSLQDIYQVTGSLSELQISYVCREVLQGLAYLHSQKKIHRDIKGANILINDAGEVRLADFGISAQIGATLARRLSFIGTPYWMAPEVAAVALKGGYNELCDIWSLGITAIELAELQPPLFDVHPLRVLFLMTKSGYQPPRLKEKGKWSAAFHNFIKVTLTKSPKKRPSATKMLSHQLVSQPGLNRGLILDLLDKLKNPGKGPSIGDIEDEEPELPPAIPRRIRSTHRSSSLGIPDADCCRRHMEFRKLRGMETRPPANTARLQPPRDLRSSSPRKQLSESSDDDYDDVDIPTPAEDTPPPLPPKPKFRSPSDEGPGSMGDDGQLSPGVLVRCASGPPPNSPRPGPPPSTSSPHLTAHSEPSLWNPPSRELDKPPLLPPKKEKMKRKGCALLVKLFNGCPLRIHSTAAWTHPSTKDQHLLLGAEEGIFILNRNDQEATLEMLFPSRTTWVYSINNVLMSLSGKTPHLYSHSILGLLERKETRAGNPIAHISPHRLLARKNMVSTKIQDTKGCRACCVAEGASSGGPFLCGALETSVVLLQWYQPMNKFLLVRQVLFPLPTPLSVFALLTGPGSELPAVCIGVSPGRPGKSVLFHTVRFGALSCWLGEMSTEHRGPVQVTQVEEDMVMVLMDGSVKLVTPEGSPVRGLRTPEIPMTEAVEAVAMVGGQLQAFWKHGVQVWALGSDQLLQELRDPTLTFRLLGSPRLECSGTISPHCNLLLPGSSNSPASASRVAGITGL

| IC50 | Compound |
| --- | --- |
| 100 to 1000 nM | Cc1cc(-c2nc3cc(Nc4ccc(N5CCOCC5)c(CN5CCCC5)c4)ncc3s2)ccn1 [Example 2, 2-(2-Methylpyridin-4-yl)-N-[4-(morpholin-4-yl)-3-[(pyrrolidin-1-yl)methyl]phenyl]-[1,3]thiazolo[5,4-c]pyridin-6-amine] |
| < 100 nM | Cc1cccc(C)c1-c1nc2cc(Nc3ccc(N4CCC(F)(F)C4)c(CN4CCCC4)n3)ncc2s1 [Example 10, 5-(3,3-Difluoropyrrolidin-1-yl)-N-[2-(2,6-dimethylphenyl)-[1,3]thiazolo[5,4-c]pyridin-6-yl]-6-[(pyrrolidin-1-yl)methyl]pyridin-2-amine] |
| < 100 nM | N#Cc1ccc(-c2nc3cc(Nc4ccc(N5CCOCC5)c(CN5CCCC5)n4)ncc3s2)cc1 [Example 21, 4-(6-{[5-(Morpholin-4-yl)-6-[(pyrrolidin-1-yl)methyl]pyridin-2-yl]amino}-[1,3]thiazolo[5,4-c]pyridin-2-yl)benzonitrile] |
| < 100 nM | Fc1ccc(-c2nc3cc(Nc4ccc(N5CCOCC5)c(CN5CCCC5)n4)ncc3s2)cc1 [Example 22, N-[2-(4-Fluorophenyl)-[1,3]thiazolo[5,4-c]pyridin-6-yl]-5-(morpholin-4-yl)-6-[(pyrrolidin-1-yl)methyl]pyridin-2-amine] |
| < 100 nM | c1n[nH]cc1-c1nc2cc(Nc3ccc(N4CCOCC4)c(CN4CCCC4)n3)ncc2s1 [Example 25, 5-(Morpholin-4-yl)-N-[2-(1H-pyrazol-4-yl)-[1,3]thiazolo[5,4-c]pyridin-6-yl]-6-[(pyrrolidin-1-yl)methyl]pyridin-2-amine] |
| < 100 nM | Cc1ccc(Nc2cc3nc(-c4ccc(F)cc4)sc3cn2)nc1CN1CCCC1 [Example 32, N-[2-(4-Fluorophenyl)-[1,3]thiazolo[5,4-c]pyridin-6-yl]-5-methyl-6-[(pyrrolidin-1-yl)methyl]pyridin-2-amine] |
| < 100 nM | Cc1ccc(Nc2cc3nc(-c4cccc(F)c4)sc3cn2)nc1CN1CCCC1 [Example 34] |
| 100 to 1000 nM | Cc1ccc(Nc2cc3nc(-c4cnn(C(F)(F)F)c4)sc3cn2)nc1CN1CCCC1 [Example 36, 5-Methyl-6-[(pyrrolidin-1-yl)methyl]-N-{2-[1-(trifluoromethyl)-1H-pyrazol-4-yl]-[1,3]thiazolo[5,4-c]pyridin-6-yl}pyridin-2-amine] |
| < 100 nM | Cc1ccc(Nc2cc3nc(-c4cnn(C5CCOC5)c4)sc3cn2)nc1CN1CCCC1 (stereo not shown) [Example 38, 5-Methyl-N-{2-[1-(oxolan-3-yl)-1H-pyrazol-4-yl]-[1,3]thiazolo[5,4-c]pyridin-6-yl}-6-[(pyrrolidin-1-yl)methyl]pyridin-2-amine] |
| < 100 nM | Cc1ccc(Nc2cc3nc(-c4cnn(CCO)c4)sc3cn2)nc1CN1CCCC1 [Example 40, 2-{4-[6-({5-Methyl-6-[(pyrrolidin-1-yl)methyl]pyridin-2-yl}amino)-[1,3]thiazolo[5,4-c]pyridin-2-yl]-1H-pyrazol-1-yl}ethan-1-ol] |
| < 100 nM | Cc1ccc(Nc2cc3nc(-c4ncccc4C)sc3cn2)nc1CN1CCC[C@@H]1C [Example 45, 5-Methyl-N-[2-(3-methylpyridin-2-yl)-[1,3]thiazolo[5,4-c]pyridin-6-yl]-6-{[(2S)-2-methylpyrrolidin-1-yl]methyl}pyridin-2-amine] |
| 100 to 1000 nM | Cc1ccc(Nc2cc3nc(-c4ncccn4)sc3cn2)nc1CN1CCCC1 [Example 55, 5-Methyl-N-[2-(pyrimidin-2-yl)-[1,3]thiazolo[5,4-c]pyridin-6-yl]-6-[(pyrrolidin-1-yl)methyl]pyridin-2-amine] |
| 100 to 1000 nM | Cc1ccc(Nc2cc3nc(-c4cncnc4)sc3cn2)nc1CN1CCCC1 [Example 58, 5-Methyl-N-[2-(pyrimidin-5-yl)-[1,3]thiazolo[5,4-c]pyridin-6-yl]-6-[(pyrrolidin-1-yl)methyl]pyridin-2-amine] |
| 100 to 1000 nM | Cc1cccnc1-c1nc2cc(Nc3ccc(C(F)(F)F)c(CN4CCCC4)n3)ncc2s1 [Example 59, N-[2-(3-Methylpyridin-2-yl)-[1,3]thiazolo[5,4-c]pyridin-6-yl]-6-[(pyrrolidin-1-yl)methyl]-5-(trifluoromethyl)pyridin-2-amine] |
| < 100 nM | Cc1cccnc1-c1nc2cc(Nc3ccc(N4CCOCC4)c(CN4CCCCC4)n3)ncc2s1 [Example 64, N-[2-(3-Methylpyridin-2-yl)-[1,3]thiazolo[5,4-c]pyridin-6-yl]-5-(morpholin-4-yl)-6-[(piperidin-1-yl)methyl]pyridin-2-amine] |
| < 100 nM | Cc1cccnc1-c1nc2cc(Nc3ccc(C)c(N4C[C@H](N)C[C@@H]4CO)n3)ncc2s1 [Example 67, [(2R,4R)-4-Amino-1-(3-methyl-6-{[2-(3-methylpyridin-2-yl)-[1,3]thiazolo[5,4-c]pyridin-6-yl]amino}pyridin-2-yl)pyrrolidin-2-yl]methanol] |

Continued, compound first:

| Compound | IC50 |
| --- | --- |
| Fc1cccnc1-c1nc2cc(Nc3ccc(N4CCOCC4)c(CN4CCCC4)n3)ncc2s1 [Example 8, N-[2-(3-Fluoropyridin-2-yl)-[1,3]thiazolo[5,4-c]pyridin-6-yl]-5-(morpholin-4-yl)-6-[(pyrrolidin-1-yl)methyl]pyridin-2-amine] | < 100 nM |
| Fc1cccc(F)c1-c1nc2cc(Nc3ccc(N4CCC(F)(F)C4)c(CN4CCCC4)n3)ncc2s1 [Example 11, N-[2-(2,6-Difluorophenyl)-[1,3]thiazolo[5,4-c]pyridin-6-yl]-5-(3,3-difluoropyrrolidin-1-yl)-6-[(pyrrolidin-1-yl)methyl]pyridin-2-amine] | 100 to 1000 nM |
| Cc1ccc(Nc2cc3nc(-c4cc(F)cc(F)c4)sc3cn2)nc1CN1CCCC1 [Example 33, N-[2-(3,5-Difluorophenyl)-[1,3]thiazolo[5,4-c]pyridin-6-yl]-5-methyl-6-[(pyrrolidin-1-yl)methyl]pyridin-2-amine] | 100 to 1000 nM |
| Cc1ccc(Nc2cc3nc(-c4cnn(C5CCOCC5)c4)sc3cn2)nc1CN1CCCC1 [Example 39, 5-Methyl-N-{2-[1-(oxan-4-yl)-1H-pyrazol-4-yl]-[1,3]thiazolo[5,4-c]pyridin-6-yl}-6-[(pyrrolidin-1-yl)methyl]pyridin-2-amine] | < 100 nM |
| Cc1ccc(Nc2cc3nc(-c4ncccc4C)sc3cn2)nc1CN1CC[C@@H](F)C1 [Example 42, 6-{[(3R)-3-Fluoropyrrolidin-1-yl]methyl}-5-methyl-N-[2-(3-methylpyridin-2-yl)-[1,3]thiazolo[5,4-c]pyridin-6-yl]pyridin-2-amine] | < 100 nM |
| Cc1ccc(Nc2cc3nc(-c4ncccc4C)sc3cn2)nc1CN1CCCC1(C)C [Example 47, 6-[(2,2-Dimethylpyrrolidin-1-yl)methyl]-5-methyl-N-[2-(3-methylpyridin-2-yl)-[1,3]thiazolo[5,4-c]pyridin-6-yl]pyridin-2-amine] | < 100 nM |
| Cc1ccc(Nc2cc3nc(-c4ncccc4C)sc3cn2)nc1CN1CCC[C@H]1CO [Example 48, [(2S)-1-[(3-Methyl-6-{[2-(3-methylpyridin-2-yl)-[1,3]thiazolo[5,4-c]pyridin-6-yl]amino}pyridin-2-yl)methyl]pyrrolidin-2-yl]methanol] | < 100 nM |
| Cc1ccc(Nc2cc3nc(-c4ncccc4C(C)C)sc3cn2)nc1CN1CCCC1 [Example 50, 5-Methyl-N-{2-[3-(propan-2-yl)pyridin-2-yl]-[1,3]thiazolo[5,4-c]pyridin-6-yl}-6-[(pyrrolidin-1-yl)methyl]pyridin-2-amine] | < 100 nM |
| Cc1ccc(Nc2cc3nc(-c4cnn(C)c4)sc3cn2)nc1CN1CCCC1 [Example 51, 5-Methyl-N-[2-(1-methyl-1H-pyrazol-4-yl)-[1,3]thiazolo[5,4-c]pyridin-6-yl]-6-[(pyrrolidin-1-yl)methyl]pyridin-2-amine] | < 100 nM |
| Cc1cccnc1-c1nc2cc(Nc3cccc(CN4CCCC4)n3)ncc2s1 [Example 52, N-[2-(3-Methylpyridin-2-yl)-[1,3]thiazolo[5,4-c]pyridin-6-yl]-6-[(pyrrolidin-1-yl)methyl]pyridin-2-amine] | < 100 nM |
| Cc1ccc(Nc2cc3nc(-c4cccnc4)sc3cn2)nc1CN1CCCC1 [Example 53, 5-Methyl-N-[2-(pyridin-3-yl)-[1,3]thiazolo[5,4-c]pyridin-6-yl]-6-[(pyrrolidin-1-yl)methyl]pyridin-2-amine] | < 100 nM |
| Cc1ccc(Nc2cc3nc(-c4cnccn4)sc3cn2)nc1CN1CCCC1 [Example 56, 5-Methyl-N-[2-(pyrazin-2-yl)-[1,3]thiazolo[5,4-c]pyridin-6-yl]-6-[(pyrrolidin-1-yl)methyl]pyridin-2-amine] | 100 to 1000 nM |
| Cc1cccnc1-c1nc2cc(Nc3ccc(F)c(CN4CCCC4)n3)ncc2s1 [Example 61, 5-Fluoro-N-[2-(3-methylpyridin-2-yl)-[1,3]thiazolo[5,4-c]pyridin-6-yl]-6-[(pyrrolidin-1-yl)methyl]pyridin-2-amine] | < 100 nM |
| Cc1ccc(Nc2cc3nc(-c4ncccc4C)sc3cn2)nc1CCN1CCCC1 [Example 62, 5-Methyl-N-[2-(3-methylpyridin-2-yl)-[1,3]thiazolo[5,4-c]pyridin-6-yl]-6-[2-(pyrrolidin-1-yl)ethyl]pyridin-2-amine] | 100 to 1000 nM |

Same assay, conditions: Biochemical Potency (low ATP), 2 nM HPK1, 10 μM ATP

| Compound | IC50 |
| --- | --- |
| Cc1ccc(Nc2cc3nc(-c4ccncc4)sc3cn2)nc1CN1CCCC1 [Example 35, 5-Methyl-N-[2-(pyridin-4-yl)-[1,3]thiazolo[5,4-c]pyridin-6-yl]-6-[(pyrrolidin-1-yl)methyl]pyridin-2-amine] | < 100 nM |
